According to paper PMC10958501, “4-Oxypiperidine Ethers as Multiple Targeting Ligands at Histamine H3 Receptors and Cholinesterases” (ACS Chemical Neuroscience, 2024):

Tests used:
eqBuChE = eqBuChE (Equus caballus, UniProt P81908); test: biochemical
[1] = target: T1, human histamine H3 receptor (Homo sapiens, UniProt Q9Y5N1); test: H3R intrinsic activity, cAMP accumulation assay in HEK293 cells; type: cell-based
T1 construct: expressed in transfected cells
Description: For the lead compound ADS031, intrinsic activity at H3R was tested in HEK293 cells expressing recombinant human receptors using a cAMP accumulation assay. […] […].
The compounds were tested against H3R by an ex vivo assay using isolated guinea pig ileum electrically stimulated to contraction, according to Vollinga et al.[47] The pA2-values were calculated according to Arunlakshana and Schild.[59] The radioligand-displacement assay was performed in membrane fractions of HEK-293 cells stably expressing hH3R. Cell cultivation and membrane preparation were performed according to Kottke et al.[48] The Ki values were calculated from the IC50 values using the Cheng–Prusoff equation.[60] The statistical calculations were performed on −log(Ki). The mean values and 95% confidence intervals were transformed to nanomolar concentrations. The inhibitory activities toward AChE and BuChE of novel ADS compounds were assessed in a spectrophotometric Ellman’s assay using electric eel AChE (eeAChE) and equine BuChE (eqBuChE).[57] Intracellular cAMP accumulation was measured with a homogeneous TR-FRET immunoassay using the LANCE Ultra cAMP kit (PerkinElmer) and HEK293 cells stably expressing the human histamine H3 receptor.[61] A more detailed description of the biological methods is presented in the Supporting Information.
3.4. H3R intrinsic activity.
Intracellular cAMP accumulation was measured with homogenous TR-FRET immunoassay, using LANCE Ultra cAMP kit (PerkinElmer) and HEK293 cells, stably expressing human histamine H3 receptor. An antagonist dose-response experiments were performed in a total assay volume of 20 μl in white 384-well plates, using 750 cells/well. […] TR-FRET signal was read on Spark microplate reader (Tecan Life Sciences). Measured TR-FRET, which was inversely proportional to cAMP quantities in the sample, was then normalized and presented as % of maximal cAMP accumulation in the assay determined for the forskolin alone-stimulated cells. […]

T1 sequence (Q9Y5N1 whole entry): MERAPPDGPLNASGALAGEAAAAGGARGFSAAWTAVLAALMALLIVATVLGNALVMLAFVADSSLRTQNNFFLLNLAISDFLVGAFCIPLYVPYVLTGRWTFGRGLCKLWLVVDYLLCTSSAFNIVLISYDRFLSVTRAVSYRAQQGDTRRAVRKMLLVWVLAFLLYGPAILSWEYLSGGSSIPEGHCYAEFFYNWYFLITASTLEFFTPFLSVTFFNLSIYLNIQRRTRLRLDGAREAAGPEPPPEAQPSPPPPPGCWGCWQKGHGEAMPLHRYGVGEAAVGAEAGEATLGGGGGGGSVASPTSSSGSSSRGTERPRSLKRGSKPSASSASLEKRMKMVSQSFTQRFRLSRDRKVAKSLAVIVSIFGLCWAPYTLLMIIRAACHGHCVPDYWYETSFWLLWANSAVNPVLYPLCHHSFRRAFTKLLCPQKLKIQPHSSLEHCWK
eqBuChE, sequence (P81908 whole entry): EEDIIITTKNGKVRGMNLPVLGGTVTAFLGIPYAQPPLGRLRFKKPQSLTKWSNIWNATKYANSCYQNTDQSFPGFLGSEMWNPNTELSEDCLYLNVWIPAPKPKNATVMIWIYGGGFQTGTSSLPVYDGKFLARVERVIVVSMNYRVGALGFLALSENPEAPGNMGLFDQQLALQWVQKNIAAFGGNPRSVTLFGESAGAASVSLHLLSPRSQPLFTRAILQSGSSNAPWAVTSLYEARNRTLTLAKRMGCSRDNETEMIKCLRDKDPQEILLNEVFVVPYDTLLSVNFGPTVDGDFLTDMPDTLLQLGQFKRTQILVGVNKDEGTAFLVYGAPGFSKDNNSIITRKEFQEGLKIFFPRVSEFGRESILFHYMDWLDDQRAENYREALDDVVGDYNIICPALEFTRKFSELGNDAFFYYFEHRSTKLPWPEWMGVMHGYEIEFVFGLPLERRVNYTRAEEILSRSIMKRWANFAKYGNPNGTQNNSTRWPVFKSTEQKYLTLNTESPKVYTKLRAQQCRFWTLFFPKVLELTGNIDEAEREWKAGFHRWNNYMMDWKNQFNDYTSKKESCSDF

Structure (SMILES): CCCN(C)Cc1ccc2cc(COC3CCN(Cc4ccccc4)CC3)ccc2c1 [ADS031, N-((6-(((1-Benzylpiperidin-4-yl)oxy)methyl)naphthalen-2-yl)methyl)-N-methylpropan-1-amine]
- inhibition at 10 µM (eqBuChE; read-out: eqBuChE % inh. (10 μM) ± SD): 93.1 ± 0.4%
- IC50 (eqBuChE; read-out: eqBuChE IC50 [μM] ± sem): 1.35 ± 0.05 µM
- Kb ([1]; Leff-Dougall variant of Cheng-Prusoff equation, read-out: Kb in H3R functional assay (cAMP accumulation)): 0.75 ± 0.15 nM
- IC50 ([1]; against (R)-(−)-α-methylhistamine (30 nM), forskolin-stimulated HEK293 cells, read-out: IC50 in H3R functional assay (cAMP accumulation)): 41.7 ± 8.5 nM
- H3R intrinsic activity ([1]; cAMP accumulation assay): H3R antagonist/inverse agonist
